Reference: US9902761B2, “Polypeptides, nucleic acids and uses thereof” (AGENCY FOR SCIENCE, TECHNOLOGY AND RESEARCH, priority 2013, dated 2018)

Assays:
HIV-1 NL43 = experiment: HIV inhibition assay in P4C5 HeLa cells (β-gal activity); type: cell-based; details: CXCR4-tropic strain
HIV-1 NLAD8 = experiment: as above; type: cell-based; details: CCR5-tropic virus
VSV-G pseudotyped virus = type: cell-based, HIV (VSV)

Cc1ccnc2c1NC(=O)c1cccnc1N2C1CC1 [Nevirapine, reference compound]
blocks all viruses tested: inhibition of infection with HIV-1 NL43 (HIV-1 NL43) | inhibition of infection with HIV-1 NLAD8 (HIV-1 NLAD8) | inhibition of infection with VSV-G pseudotyped virus (VSV-G pseudotyped virus)
